Among the data in patent publication US11278533B2, “Animal pest control method” (E.I. DU PONT DE NEMOURS AND COMPANY, priority 2007, dated 2022) are mortality values, retold here.

This assay deals with cat flea (Ctenocephalides felis). Put plainly: Test D: cat flea membrane feeding on treated bovine blood. In kind it is in vivo. The settings on record: 72 h. How it is done:
For evaluating control of the cat flea (Ctenocephalides felis), a test compound was solubilized in propylene glycol/glycerol formal (60:40) and then diluted in bovine blood to a final test rate of 30 ppm. The treated blood was placed in a tube, and the bottom of the tube was covered with a membrane. Approximately 10 adult cat fleas were allowed to feed through the membrane on the treated blood. The adult fleas were then evaluated for mortality 72 hours later.
What is called mortality is the percentage killed. `Cc1cc(C2=NOC(c3cc(Cl)cc(Cl)c3)(C(F)(F)F)C2)ccc1C(=O)NCc1ccccn1` (centres unmarked) [Compound 1, 4-[5-(3,5-dichlorophenyl)-4,5-dihydro-5-(trifluoromethyl)-3-isoxazolyl]-2-methyl-N-(2-pyridinylmethyl)benzamide] yielded a mortality at 30 ppm of at least 50%. In the case of `CSCCNC(=O)c1ccc(C2=NOC(c3cc(Cl)cc(Cl)c3)(C(F)(F)F)C2)cc1C` (centres unmarked) [Compound 2, 4-[5-(3,5-dichlorophenyl)-4,5-dihydro-5-(trifluoromethyl)-3-isoxazolyl]-2-methyl-N-[2-(methylthio)ethyl]benzamide], the mortality at 30 ppm was at least 50%. In turn, `Cc1cc(C2=NOC(c3cc(Cl)cc(Cl)c3)(C(F)(F)F)C2)ccc1C(=O)NCC(=O)NCC(F)(F)F` (centres unmarked) [Compound 3, 4-[5-(3,5-dichlorophenyl)-4,5-dihydro-5-(trifluoromethyl)-3-isoxazolyl]-2-methyl-N-[2-oxo-2-[(2,2,2-trifluoroethyl)amino]ethyl]benzamide] showed a mortality at 30 ppm of at least 50%. Then `Cc1cc(C2=NOC(c3cc(Cl)cc(Cl)c3)(C(F)(F)F)C2)ccc1C(=O)NCC[S+](C)[O-]` (centres unmarked) [Compound 5, 4-[5-(3,5-dichlorophenyl)-4,5-dihydro-5-(trifluoromethyl)-3-isoxazolyl]-2-methyl-N-[2-(methylsulfinyl)ethyl]benzamide], with at least 50%; and `Cc1cc(C2=NOC(c3cc(Cl)cc(Cl)c3)(C(F)(F)F)C2)ccc1C(=O)NCCS(C)(=O)=O` (centres unmarked) [Compound 6, 4-[5-(3,5-dichlorophenyl)-4,5-dihydro-5-(trifluoromethyl)-3-isoxazolyl]-2-methyl-N-[2-(methylsulfonyl)ethyl]benzamide], with at least 50%.
